Measured values from PMC11403280, “Subclass IId bacteriocins targeting mannose phosphotransferase system—Structural diversity and implications for receptor interaction and antimicrobial activity” (PNAS Nexus, 2024).
Read-outs that look alike come from different tables or passages of the source. Ends that are not written are not given here.

Legend:
[1] = molecular target: Man-PTS membrane complex IICIID of L. garvieae (ManCD) (L. garvieae (endogenous in L. garvieae IBB3403))
[2] = system: Vero, HepG2, and Caco-2 cell lines; conditions: ref [36], [37], cited from earlier work
Text: The use of bacteriocins as antibacterial agents offers a promising solution to some of the most challenging public health problems today, such as the emergence of difficult-to-treat infections caused by antibiotic-resistant pathogens ([29]) or the breakouts of foodborne diseases ([30]). Here, we have identified nine new bacteriocins of which five (MurA, MsnC, RhmB, AglA, and LcbC) could have potential in the treatment of infections caused by vancomycin-resistant Enterococcus faecium and Enterococcus faecalis strains ([31]), and four (MurA, MsnC, RhmB, and AglA) in the prevention of L. monocyto ...

[3] = system: Spontaneous Man-PTS mutants of L. lactis IL1403; assay: 2-fold serial dilutions sensitivity assay, Table S3; format: cell-based, Lactococcus lactis
Text: (§1) To identify the individual amino acid residues of Man-PTS required for the sensitivity to the newly defined bacteriocins, and thus probably involved in their interaction with the receptor, spontaneous mutants of L. lactis IL1403 and L. garvieae IBB3403 with resistance to individual bacteriocins and preserved Man-PTS functionality were selected. Out of the nine new bacteriocins, five (GarAG3, RhmB, LcnC, EntG1, and MurA) were potent enough to produce resistant mutants in their presence. In total, 34 resistant L. lactis IL1403 mutants were obtained, including three selected in the presence of RhmB, 15 in the presence of EntG1, 2—LcnC, and 14—MurA; 38 resistant L. garvieae IBB3403 mutants were obtained in the presence of GarAG3 (Table S1). They were 4- to over 1,024-fold less sensitive to the bacteriocin used for the selection than the parental strain and carried, respectively, a combined total of 11 and 10 independent mutations in the ptnCD genes of L. lactis IL1403 and the manCD genes of L. garvieae IBB3403. Ten mutations in L. lactis led to amino acid substitutions in IIC (Gly62Val, Ala110Thr, Met120Ile, and Ala187Val) or IID (Gly126Ser, Ala127Thr, Ser214Leu, Gly221Cys, Tyr223Cys, and Gly229Val), and one led to the deletion of eight amino acids (221-228GlyAlaTyrLeuGluPheProLys) in IID.
(§2) The activity of peptides of interest against indicator strains and L. garvieae IBB3403- or L. lactis IL1403-derived strains was determined using the spot-on-lawn assay as described previously ([7]). Spontaneous bacteriocin-resistant mutants were selected by growing L. garvieae IBB3403 or L. lactis IL1403 in the presence of a bacteriocin in CDM ([43]) supplemented with 1% mannose (Man-CDM) as described previously ([7]). GarAG3-resistant L. garvieae IBB3403 mutants (LG1—LG32, LG34–LG38, and LG40) were selected at the bacteriocin concentration of 0.024 µg/mL. L. lactis IL1403 mutants resistant to EntG1 (LLG1–LLG3, LLG7–LLG9, LLG11, LLG12, LLG14, LLG19, LLG21, LLG25, LLG32, LLG46, and LLG50), RhmB (LLB2, LLB3, and LLB17), MurA (LLA1, LLA7, LLA8, LLA12, LLA19–LLA22, LLA24, and LLA26–LLA30), and LcnC (LLC1, LLC2) were selected at bacteriocin concentrations of 12.5µg/mL, 1.56µg/mL, 1.56 µg/mL, and 4 ng/mL, respectively. The sensitivity of the mutants was determined using 2-fold serial dilutions assay as described previously ([7]).
Table S3. Spontaneous mutants of L. lactis IL1403 resistant to RhmB, EntG1, LcnC, MurA, GarQ, BacSJ, ubericin K, and GarC
(§3) Sensitivity to Position in the cell
(§4) Mutant strain Mutation Amino acid change [fold-decreased relative to WT] membrane of affected
RhmB EntG1 LcnC MurA GarQ BacSJ Ubericin GarC Man-PTS amino acid(s)
mutations GlyAlaTyrLeuGluPheProLys
“>” substitution; “del”deletion

[4] = system: Spontaneous Man-PTS mutants of L. garvieae IBB3403; assay: 2-fold serial dilutions sensitivity assay, Table S4; format: cell-based, Lactococcus garvieae
Text: as §1, §2
Table S4. Spontaneous mutants of L. garvieae IBB3403 resistant to GarAG3, GarA, GarB, GarC, GarQ, MurA, and ubericin K
as §3, §4
GarAG3 GarA GarB GarC GarQ MurA Ubericin Man-PTS amino acid(s)
LG9 manD: 800G>T ManD: Gly267Val 16x 0x 8x 2x 4x 0.5x 4x extracellular (region γ+)
TTGTTGGTAACG 262_265delAsnValValGly
GTAACGGTGTTG 265_268delGlyAsnGlyVal
LGA10 manD: 173C>A ManD: Ala58Asp 8x 2x 4x 4x 2x 2x 8x transmembrane (HP2a)
5 μl of each bacteriocin at a concentration of 1 mg/ml was used; “>” substitution; “del”deletion; “ins” insertion

GarQ_(Tyr11Leu) (peptide)
minimum inhibitory concentration against L. garvieae IBB3403, fold decrease in activity relative to native GarQ [1]: > 512 fold

PedPA-1: subclass IIa pediocin-like bacteriocin (KYYGNGVTCGKHSCSVDWGKATTCIINNGAMAWATGGHQGNHKC; ends and bridges not checked; cysteine pairing not given here; UniProt P29430 19-62, looked up)
Cytotoxicity ([2]; up to 400 μg/mL): no cytotoxicity

EYHLMNGANGYLTRVNGKYVYRVTKDPVSAVFGVISNGWGSAGAGFGPQH [GarQ]
Sensitivity to [fold-decreased relative to WT] ([3]; LLA1 etc. (MurA-resistant), PtnC: Ala110Thr): 4 x
Sensitivity to [fold-decreased relative to WT] ([3]; LLB2,LLB3, PtnD: Gly126Ser): 0 x
Sensitivity to [fold-decreased relative to WT] ([3]; LLB17, PtnD: Ser214Leu): 256 x
Sensitivity to [fold-decreased relative to WT] ([3]; LLC1, LLC2, PtnC: Gly62Val): 64 x
Sensitivity to [fold-decreased relative to WT] ([3]; LLG1, LLG2, PtnD: 221-228del): 16 x
Sensitivity to [fold-decreased relative to WT] ([3]; LLG3, LLG9, LLG11, LLG32, LLG46, PtnD: Gly229Val): 16 x
Sensitivity to [fold-decreased relative to WT] ([3]; LLG7, LLG19, LLG21, PtnD: Ala127Thr): 8 x
Sensitivity to [fold-decreased relative to WT] ([3]; LLG8, PtnD: Gly221Cys): 16 x
Sensitivity to [fold-decreased relative to WT] ([3]; LLG12, LLG14, PtnC: Ala187Val): 8 x
Sensitivity to [fold-decreased relative to WT] ([3]; LLG25, PtnD: Tyr223Cys): 16 x
Sensitivity to [fold-decreased relative to WT] ([3]; LLG50, PtnC: Met120Ile): 4 x
Sensitivity to [fold-decreased relative to WT] ([3]; LLN1, PtnD: Pro123His): > 1024 x
Sensitivity to [fold-decreased relative to WT] ([3]; M6, PtnD: Arg200His): 8 x
Sensitivity to [fold-decreased relative to WT] ([3]; M16, PtnD: Leu83Phe): 0 x
Sensitivity to [fold-decreased relative to WT] ([3]; M19, PtnD: Phe226Ser): 8 x
Sensitivity to [fold-decreased relative to WT] ([3]; M30, PtnD: Leu197Phe): 16 x
Sensitivity to [fold-decreased relative to WT] ([4]; LG1 etc., ManD: Arg203Leu): 0 x
Sensitivity to [fold-decreased relative to WT] ([4]; LG2, ManC: Gly60Cys): 32 x
Sensitivity to [fold-decreased relative to WT] ([4]; LG6, ManD: Trp256Leu): 16 x
Sensitivity to [fold-decreased relative to WT] ([4]; LG9, ManD: Gly267Val): 4 x
Sensitivity to [fold-decreased relative to WT] ([4]; LG11, 13, 22, 28, ManD: Arg203Cys): 2 x
Sensitivity to [fold-decreased relative to WT] ([4]; LG12, ManD: 262_265delAsnValValGly): 4 x
Sensitivity to [fold-decreased relative to WT] ([4]; LG18, ManD: 265_268delGlyAsnGlyVal): 4 x
Sensitivity to [fold-decreased relative to WT] ([4]; LG23, 29, ManC: Gly188Val): 4 x
Sensitivity to [fold-decreased relative to WT] ([4]; LG32, ManD: Ser318Leu): 2 x
Sensitivity to [fold-decreased relative to WT] ([4]; LG36, ManC: Gly60Val): 128 x
Sensitivity to [fold-decreased relative to WT] ([4]; LGA2, ManC: Leu59Pro): 128 x
Sensitivity to [fold-decreased relative to WT] ([4]; LGA3, ManC: Gly52Val): 4 x
Sensitivity to [fold-decreased relative to WT] ([4]; LGA6, ManC:190_191insVal): 4 x
Sensitivity to [fold-decreased relative to WT] ([4]; LGA10, ManD: Ala58Asp): 2 x
Sensitivity to [fold-decreased relative to WT] ([4]; LGB6, ManD: Gln313Lys): 2 x
Sensitivity to [fold-decreased relative to WT] ([4]; LGC1, ManD: Met34Ile): 0 x
Sensitivity to [fold-decreased relative to WT] ([4]; LGC8, ManD: Tyr226Asp): 16 x
Sensitivity to [fold-decreased relative to WT] ([4]; LGC13, ManC: Ala106Val): 4 x
Sensitivity to [fold-decreased relative to WT] ([4]; LGC15, ManD: Ala133Val, Val315Met): 4 x
Sensitivity to [fold-decreased relative to WT] ([4]; LGN1, ManD: Gly301Val): > 1024 x
Sensitivity to [fold-decreased relative to WT] ([4]; LGN2, ManD: Ala133Val): 16 x
Sensitivity to [fold-decreased relative to WT] ([4]; LGN9, ManC: Ala102Val): 16 x
Sensitivity to [fold-decreased relative to WT] ([4]; PW202, ManC: Pro100His): > 1024 x
Sensitivity to [fold-decreased relative to WT] ([4]; PW203, ManD: Thr123Ile): > 1024 x
Sensitivity to [fold-decreased relative to WT] ([4]; PW204, ManD: Pro111Ser): > 1024 x
Cytotoxicity ([2]; highly purified, concentrations up to 1 mg/mL): no cytotoxicity

GarQ_(Asn9Gly) (peptide)
minimum inhibitory concentration against L. garvieae IBB3403, fold decrease in activity relative to native GarQ [1]: > 512 fold
